Data taken from the NIST ThermoML archive (doi:10.1021/je034017j).

Assay: xn = mol fraction of the nth substance listed
Conditions: 101 kPa, Liquid

CCCCC(=O)OC [methyl pentanoate] + CCCCCCO
Capillary tube (Ostwald / Ubbelohde) method
Conditions	kinematic viscosity [m2/s]
293.15 K, x1 = 0.085	4.728e-06
293.15 K, x1 = 0.1145	4.25e-06
293.15 K, x1 = 0.1854	3.367e-06
293.15 K, x1 = 0.2862	2.527e-06
293.15 K, x1 = 0.4123	1.87e-06
293.15 K, x1 = 0.5087	1.533e-06
293.15 K, x1 = 0.6157	1.256e-06
293.15 K, x1 = 0.6835	1.129e-06
293.15 K, x1 = 0.7846	9.82e-07
293.15 K, x1 = 0.9071	8.57e-07
293.15 K, x1 = 0.9274	8.42e-07
293.15 K, x1 = 1	8e-07
303.15 K, x1 = 0.0771	3.701e-06
303.15 K, x1 = 0.1183	3.251e-06
303.15 K, x1 = 0.192	2.619e-06
303.15 K, x1 = 0.2983	1.994e-06
303.15 K, x1 = 0.4502	1.436e-06
303.15 K, x1 = 0.4593	1.412e-06
303.15 K, x1 = 0.5089	1.285e-06
303.15 K, x1 = 0.613	1.085e-06
303.15 K, x1 = 0.691	9.67e-07
303.15 K, x1 = 0.7873	8.55e-07
303.15 K, x1 = 0.8796	7.75e-07
303.15 K, x1 = 0.9346	7.39e-07
303.15 K, x1 = 1	7.08e-07
313.15 K, x1 = 0.0802	2.858e-06
313.15 K, x1 = 0.1168	2.58e-06
313.15 K, x1 = 0.1965	2.082e-06
313.15 K, x1 = 0.2939	1.644e-06
313.15 K, x1 = 0.3995	1.321e-06
313.15 K, x1 = 0.5141	1.083e-06
313.15 K, x1 = 0.548	1.028e-06
313.15 K, x1 = 0.5971	9.61e-07
313.15 K, x1 = 0.6912	8.44e-07
313.15 K, x1 = 0.7876	7.52e-07
313.15 K, x1 = 0.9035	6.75e-07
313.15 K, x1 = 0.9358	6.58e-07
313.15 K, x1 = 1	6.34e-07

Conditions	mass density [kg/m3]
293.15 K, x1 = 0.085	824.62
293.15 K, x1 = 0.1145	826.65
293.15 K, x1 = 0.1854	831.55
293.15 K, x1 = 0.2862	838.56
293.15 K, x1 = 0.4123	847.4
293.15 K, x1 = 0.5087	854.22
293.15 K, x1 = 0.6157	861.84
293.15 K, x1 = 0.6835	866.67
293.15 K, x1 = 0.7846	873.96
293.15 K, x1 = 0.9071	882.86
293.15 K, x1 = 0.9274	884.35
293.15 K, x1 = 1	889.75
303.15 K, x1 = 0.0771	816.54
303.15 K, x1 = 0.1183	819.23
303.15 K, x1 = 0.192	824.09
303.15 K, x1 = 0.2983	831.16
303.15 K, x1 = 0.4502	841.37
303.15 K, x1 = 0.4593	841.99
303.15 K, x1 = 0.5089	845.34
303.15 K, x1 = 0.613	852.44
303.15 K, x1 = 0.691	857.8
303.15 K, x1 = 0.7873	864.46
303.15 K, x1 = 0.8796	870.9
303.15 K, x1 = 0.9346	874.8
303.15 K, x1 = 1	879.51
313.15 K, x1 = 0.0802	809.21
313.15 K, x1 = 0.1168	811.47
313.15 K, x1 = 0.1965	816.46
313.15 K, x1 = 0.2939	822.62
313.15 K, x1 = 0.3995	829.39
313.15 K, x1 = 0.5141	836.8
313.15 K, x1 = 0.548	838.99
313.15 K, x1 = 0.5971	842.2
313.15 K, x1 = 0.6912	848.37
313.15 K, x1 = 0.7876	854.78
313.15 K, x1 = 0.9035	862.6
313.15 K, x1 = 0.9358	864.8
313.15 K, x1 = 1	869.32

CCCCCCO [hexan-1-ol] + CCCCCCCC
Conditions	kinematic viscosity [m2/s]	mass density [kg/m3]
293.15 K, x2 = 0	6.61e-06	818.84
293.15 K, x2 = 0.0618	5.49e-06	809.74
293.15 K, x2 = 0.086	–	806.25
293.15 K, x2 = 0.1114	4.74e-06	802.62
293.15 K, x2 = 0.1597	–	795.86
293.15 K, x2 = 0.1891	–	791.83
293.15 K, x2 = 0.1928	3.74e-06	791.32
293.15 K, x2 = 0.2346	–	785.68
293.15 K, x2 = 0.3022	2.75e-06	776.82
293.15 K, x2 = 0.4039	2.08e-06	764.07
293.15 K, x2 = 0.495	1.67e-06	753.22
293.15 K, x2 = 0.4994	–	752.71
293.15 K, x2 = 0.6088	1.31e-06	740.42
293.15 K, x2 = 0.715	1.08e-06	729.21
293.15 K, x2 = 0.7991	–	720.79
293.15 K, x2 = 0.8086	9.47e-07	719.86
293.15 K, x2 = 0.8381	–	717.02
293.15 K, x2 = 0.8767	–	713.37
293.15 K, x2 = 0.9078	8.43e-07	710.5
293.15 K, x2 = 0.9272	–	708.75
293.15 K, x2 = 0.9458	8.03e-07	707.09
303.15 K, x2 = 0	4.88e-06	811.56
303.15 K, x2 = 0.0233	–	808.05
303.15 K, x2 = 0.051	–	803.93
303.15 K, x2 = 0.086	3.85e-06	798.81
303.15 K, x2 = 0.1189	–	794.07
303.15 K, x2 = 0.1308	3.41e-06	792.38
303.15 K, x2 = 0.1581	–	788.53
303.15 K, x2 = 0.188	2.94e-06	784.37
303.15 K, x2 = 0.1922	–	783.8
303.15 K, x2 = 0.2352	–	777.94
303.15 K, x2 = 0.2632	–	774.2
303.15 K, x2 = 0.308	2.15e-06	768.33
303.15 K, x2 = 0.369	–	760.56
303.15 K, x2 = 0.3936	1.75e-06	757.47
303.15 K, x2 = 0.4152	–	754.82
303.15 K, x2 = 0.4508	–	750.49
303.15 K, x2 = 0.4994	1.38e-06	744.75
303.15 K, x2 = 0.5249	–	741.79
303.15 K, x2 = 0.578	–	735.78
303.15 K, x2 = 0.5852	1.17e-06	734.98
303.15 K, x2 = 0.6255	–	730.55
303.15 K, x2 = 0.7026	9.66e-07	722.36
303.15 K, x2 = 0.7143	–	721.15
303.15 K, x2 = 0.774	–	715.1
303.15 K, x2 = 0.7909	–	713.42
303.15 K, x2 = 0.8042	8.42e-07	712.11
303.15 K, x2 = 0.8532	–	707.39
303.15 K, x2 = 0.8767	7.73e-07	705.17
303.15 K, x2 = 0.9009	–	702.91
303.15 K, x2 = 0.9272	7.36e-07	700.52
303.15 K, x2 = 0.947	–	698.76
313.15 K, x2 = 0	3.69e-06	804.28
313.15 K, x2 = 0.0229	–	800.79
313.15 K, x2 = 0.0502	–	796.68
313.15 K, x2 = 0.0646	3.13e-06	794.53
313.15 K, x2 = 0.0825	–	791.88
313.15 K, x2 = 0.1067	2.81e-06	788.35
313.15 K, x2 = 0.1205	–	786.35
313.15 K, x2 = 0.1569	–	781.14
313.15 K, x2 = 0.2007	2.24e-06	774.99
313.15 K, x2 = 0.2441	–	769.04
313.15 K, x2 = 0.2976	1.78e-06	761.89
313.15 K, x2 = 0.3132	–	759.85
313.15 K, x2 = 0.3441	–	755.84
313.15 K, x2 = 0.3882	1.46e-06	750.23
313.15 K, x2 = 0.3938	–	749.53
313.15 K, x2 = 0.4703	–	740.16
313.15 K, x2 = 0.4916	1.18e-06	737.63
313.15 K, x2 = 0.4949	–	737.24
313.15 K, x2 = 0.5873	1e-06	726.62
313.15 K, x2 = 0.6023	–	724.95
313.15 K, x2 = 0.6746	–	717.11
313.15 K, x2 = 0.6964	–	714.81
313.15 K, x2 = 0.7108	8.36e-07	713.3
313.15 K, x2 = 0.757	–	708.56
313.15 K, x2 = 0.7619	–	708.06
313.15 K, x2 = 0.7893	7.56e-07	705.32
313.15 K, x2 = 0.8428	–	700.08
313.15 K, x2 = 0.8748	–	697.03
313.15 K, x2 = 0.9109	6.67e-07	693.67
313.15 K, x2 = 0.9297	–	691.97
313.15 K, x2 = 0.9599	6.41e-07	689.33
